Results published in PubChem BioAssay (NCI).
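All cell lines were grown in 96-well plates and treated with compound for 48 hours. GI50 marks 50% less growth. The concentration for full growth arrest is given as TGI.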 Where a SMILES comes first, the peptide text is derived from it. [ ]: non-standard residue; d: D form. The star is where a group is joined. Phe(4-NO2) = N[CH](Cc1ccc([N+](=O)[O-])cc1)C(=O)O; Boc = CC(C)(C)OC(=O)*; OBn = c1ccc(CO*)cc1

What was measured:
Experiment in all cases: NCI anticancer screen, dose series, 48 h
[1] = system: BT-549 breast
[2] = system: HCT-116 colon
[3] = system: MOLT-4 leukemia
[4] = system: NCI-H23 lung
[5] = system: NCI-H522 lung
[6] = system: OVCAR-3 ovarian
[7] = system: OVCAR-4 ovarian
[8] = system: SK-MEL-5 melanoma
[9] = system: SR leukemia
[10] = system: UACC-257 melanoma

SMILES | TGI [1] [µM] | TGI [2] [µM] | TGI [3] [µM] | TGI [4] [µM] | TGI [5] [µM] | TGI [6] [µM] | TGI [7] [µM] | TGI [8] [µM] | TGI [9] [µM] | TGI [10] [µM] | GI50 [1] [µM]
CN1CC2=C(OC(N)=C(C#N)C2c2cccs2)/C(=C/c2cccs2)C1 (configuration not stated) | > 100 | > 49.3 | > 26.5 | > 100 | > 53 | 56.5 | 39.4 | 14.4 | > 100 | > 100 | 
COC(=O)CCC(NC(=O)OC(C)(C)C)C(=O)NC(Cc1ccc([N+](=O)[O-])cc1)C(=O)NCC(=O)OCc1ccccc1 (configuration not stated) (Boc-Glu(OMe)-[Phe(4-NO2)]-Gly-OBn; configuration not given here) | 66.9 | > 100 | > 100 | > 100 | > 100 | > 100 | > 100 | > 100 | > 100 | > 100 | 
N=C(N)SCCON1C(=O)c2ccccc2C1=O | > 100 | > 100 | > 100 | > 100 | > 100 | > 100 | > 100 | > 100 | > 100 | > 100 | 
CC(=O)O/C=C\OC1CCCC1(c1ccccc1)c1ccccc1 (configuration not stated) | 4.66 | 4.19 | 9.07 | 8.11 | 23.3 | 7.59 | 7.25 | 7.19 | 4.93 | 13.6 | 
CCNC(=O)Nc1cccc(C)n1 | > 100 | > 100 | > 100 | > 100 | > 100 | > 100 | > 100 | > 100 | > 100 | > 100 | 
c1ccc(CNc2c3c(nc4ccccc24)CCC3)cc1 | 37.1 | 24.9 | 51 | 46.2 | 39.3 | 30.8 | 58.7 | 24.4 | 38.9 | 29.3 | 
S=C1c2ccccc2NC(=NC2CCCC2)C2CSCN12 (configuration not stated) | > 100 | > 100 | > 100 |  | > 100 | > 100 | > 100 | > 100 | > 100 | > 100 | 
COc1ccc(N2C=Nn3c(nc4sc(C)c(C)c4c3=O)C2)cc1 | > 100 | > 100 | > 100 | > 100 | > 100 |  | > 100 | > 100 | > 100 | > 100 | 
COC(=O)c1cc(C)ccc1CC(Cc1cccc(C)c1)C(=O)OC (configuration not stated) | > 100 | > 100 | > 100 | > 100 | > 100 | > 100 | > 100 | > 100 | > 100 | > 100 | 
CCOC(=O)/C(=C\NCC(O)c1ccccc1)c1nc2ccccc2[nH]1 (configuration not stated) | 98.7 | 86.3 | 34.3 | 59.6 | 49 | > 100 | 75.5 | 22.9 | 42.7 | 42.5 | 
CC(C)Oc1c(-c2c(OC(C)C)c(=O)c2=O)c(=O)c1=O | > 61.3 | > 51 | > 68.1 | > 75.6 | > 27.7 |  | > 62.9 | > 61.8 | > 100 | > 100 | 
CSc1nc(NC2CCCC2)c2cc[nH]c2n1 | > 100 | > 100 | > 100 | > 100 | > 100 | > 100 | > 100 | 96.6 | 61.6 | > 100 | 
Cn1ccnc1S/C(=C\C=C(C#N)C#N)c1ccc(Cl)cc1 | > 28.7 | 1.58 | 6.25 | 5.31 | 11.5 | 5.29 | > 17.9 | 3.59 | 0.367 | 5.5 | 5.14
CC(=O)NNc1nc(C)c(C(/C=C/c2ccc3c(c2)OCO3)=N/Nc2ccccc2)s1 | > 100 | > 100 | > 100 | > 100 | > 100 | > 100 | > 100 | > 100 | > 100 | > 100 | 
COc1cc2c(cc1C[N+](C)(C)CSc1ccccc1)-c1ccccc1CC2 | 15.5 | 13.1 | 9.59 | 14.4 | 10.7 | 13 | 18.9 | 2.39 | 7.55 | 12.3 | 
Cc1c(-c2c(C)c3ccccc3n2S(=O)(=O)c2ccccc2)n(S(=O)(=O)c2ccccc2)c2ccccc12 | > 100 | > 100 | > 100 | > 100 | > 100 | > 100 | > 100 | > 94.1 | > 100 | > 100 | 
Cc1cnoc1NC1=CC(=O)C(=O)c2ccccc21 | > 100 | 70.8 | 38.8 | 32.7 | > 100 | > 100 | > 100 | 12 | > 100 | 49.3 | 
Cn1ccnc1Sc1ccc(/C=N/NC(=O)c2ccccc2O)cc1[N+](=O)[O-] | > 100 | > 100 | 13.3 | > 100 | > 100 | > 100 | > 100 | > 100 | > 100 | > 100 | 
Cc1cc2c(cc1Cl)Sc1nnc(Nc3ccccc3)n1S2(=O)=O | 34 | 37.1 | 13.5 | 15.9 | 14.2 | 7.1 | 32 | 53.8 | 13.6 | 61.2 | 
COc1cccc(N2C(=O)C3c4[nH]c5ccccc5c4C4c5ccccc5CCC4C3C2=O)c1 (configuration not stated) | > 10 | > 10 | > 10 | > 10 | > 10 | > 10 | > 7.12 | > 10 | > 4.01 |  | 
CCN(CC)Cc1nc2sc3c(c2c(=O)n1-c1ccccc1)CCCC3 | 53.6 | 39.4 | 56.7 | 81.2 | 44.9 | 34.8 | 97.4 | 31.7 | > 100 | 47.5 | 

SMILES | TGI [1] [µM] | TGI [2] [µM] | TGI [3] [µM] | TGI [4] [µM] | TGI [5] [µM] | TGI [6] [µM] | TGI [7] [µM] | TGI [8] [µM] | TGI [9] [µM] | TGI [10] [µM] | GI50 [1] [µM]
Brc1ccc(N=NN2CCCCC2)cc1 | > 100 | > 100 | 46.2 | > 100 | > 100 | > 100 | > 100 | > 100 | 41.7 | > 100 | 
Cc1nc2ccc(S(=O)(=O)Nc3ccc(Cl)cc3)cc2c(=O)n1NC(=O)CNc1ccc(Cl)cc1 | > 100 | > 100 | > 100 | > 100 | > 100 | > 100 | > 100 |  | > 100 | > 100 | 
COc1cc2c3cc1Oc1c(O)c(OC)cc4c1[C@H](Cc1ccc(cc1)Oc1cc(ccc1O)C[C@H]3N(C)CC2)N(C)CC4 | 28.4 | 22.4 | > 43.8 | 51.8 | 27 | 28.5 | 48 | 16.6 | 9.15 | 33.9 | 
Cc1ccc(C(=O)N(C2CCCCC2)C2CCCCC2)cc1N=NN(C)C | 26.8 | 27.8 | 76.7 | 27.9 | 16.7 | 19.2 | 24 | 28.1 | 76.7 | 28 | 
COc1ccc2nc3cc(Cl)ccc3c(NCCCCCC(=O)NC(COc3cnc4c(ccc5cccnc54)c3)COc3cnc4c(ccc5cccnc54)c3)c2c1 | 24.1 | 14.9 | 11.6 | > 100 | > 100 | 34.6 | > 100 |  | 11.7 | 31.4 | 
Oc1ccc(/C=C\c2nnc(/C=C\c3ccc(O)c(O)c3)s2)cc1O | 40.6 | 13 | 11.7 | 17.7 | 3.29 | 16.3 | 16 | 13.9 | 5.22 | 35.7 | 
Cc1ccc2c(=O)cc(-c3csc4ccccc34)[nH]c2n1 | 22.3 | 9.38 | 1.09 | 2.51 | < 0.01 | < 0.01 |  | 1.05 | 0.142 |  | 
Cc1ccc(N=Nc2c(C)nn(C(=O)CC(=O)Nc3ccccc3)c2C)cc1C | > 100 | > 100 | > 100 | > 100 | > 100 | > 100 | > 100 | > 100 | > 100 |  | 
CC(C)CCCC(C)[C@H]1CCC2[C@@H]3CCC4Cc5nc6c(nc5C[C@]4(C)C3CC[C@@]21C)CC1CC[C@@H]2C(C[C@@H](O)[C@@]3(C)C2C[C@@H]2OC4(CCC(C)CO4)C(C)[C@@H]23)[C@@]1(C)C6 (some centres not stated) | > 100 | > 100 | > 100 | > 100 | > 100 | > 100 | > 100 | > 100 | > 100 | > 100 | 
COC(=O)Cc1ccc2c(c1)Sc1ccc(CC(=O)OC)cc1N2C | 91.7 | > 100 | > 100 | > 77.9 | 58.1 | > 100 | > 100 | 26.3 | > 79.1 | > 93 | 
COc1cc(-c2nc3cc(F)ccc3s2)ccc1O | > 100 | > 100 | > 100 | > 100 | 78.4 | 79.1 | > 100 | > 100 | 75.7 | 66.3 | 
C=CC[C@H]1[C@@H](O[Si](C)(C)C(C)(C)C)[C@H](n2ccc(=O)[nH]c2=O)O[C@@H]1CO[Si](C)(C)C(C)(C)C | 7.67 | 3.11 | 8.66 | 5.93 | 3.93 | 3.12 | 5.97 | 3.18 | 5.95 | 5.34 | 
NCCC(N)C(=O)O (configuration not stated) | > 100 | > 100 | > 100 | > 100 | > 100 | > 100 | > 100 | > 100 | > 100 | > 100 | 
CC(=O)Oc1ccc(/C=C/C(=O)O[C@@H](C)[C@H](C)OC(=O)/C=C/c2ccc(OC(C)=O)c(OC(C)=O)c2)cc1OC(C)=O | 89.2 | > 100 | > 100 | 25.8 | 28.1 | 51.6 | > 100 | 29.2 | > 100 | 65.1 | 
CC(C)(CN)CN | > 100 | > 100 | > 100 | > 100 | > 100 | > 100 | > 100 | > 100 | > 100 | > 100 | 
COc1ccc(CCn2cnc3ccccc32)cc1 | > 100 | > 100 | > 100 | > 100 | > 100 | > 100 | > 100 | > 100 | > 100 | > 100 | 
CC(=O)OC[C@H]1O[C@@H](O[C@H]2[C@H](OC(C)=O)C=CO[C@@H]2COC(C)=O)C(OC(C)=O)[C@H]2OC(C)(C)O[C@H]21 (some centres not stated) | > 100 | > 100 | > 100 | > 100 | 35.7 | > 100 | > 100 | > 100 | > 100 | > 100 | 
COc1ccc(N(C(=O)Nc2ccc(Cl)c(Cl)c2)c2ccccc2)cc1 | > 10 | > 10 | > 10 | > 10 | > 10 | > 10 | > 10 | > 10 | > 10 | > 10 | 
Cn1c(=O)c2c(nc(NCCCCl)n2CC(=O)O)n(C)c1=O | > 100 | > 100 | > 100 | > 100 | > 100 | > 100 | > 100 | > 100 | > 100 | > 100 | 
OC(C1CCC=NN1C(O)(C(F)(F)F)C(F)(F)F)(C(F)(F)F)C(F)(F)F (configuration not stated) | > 10 | > 10 | > 10 | > 10 | > 10 | > 10 | > 10 | > 10 | > 10 | > 10 | 
COc1ccc2c(c1)OC(c1cccnc1)C(c1ccccc1)C2=O (configuration not stated) | > 100 | > 100 | > 100 | > 100 | > 100 | > 100 | > 100 | > 100 | > 100 | > 100 | 
